Values quoted from earlier work, collected in US20100210573A1, “COMPOUND AND COMPOSITIONS FOR TREATMENT OF DISEASE” (Citrox Limited, priority 2008, published 2010).

Legend:
[1] = system: Leishmania donovani promastigotes and amastigotes; settings: in vitro; Mittra et al., Molecular Medicine 6, 2000
[2] = system: Trypanosoma brucei gambiense; settings: cell cultures; Antimicrobial Agents and Chemother. 48, 2004

| SMILES | growth of Leishmania donovani promastigotes and amastigotes [1] | apoptosis of Trypanosoma brucei gambiense [2] |
| --- | --- | --- |
| O=c1cc(-c2ccc(O)c(O)c2)oc2cc(O)cc(O)c12 [Luteolin] | inhibit the growth | – |
| O=c1c(O)c(-c2ccc(O)c(O)c2)oc2cc(O)cc(O)c12 [Quercetin] | inhibit the growth | induce apoptosis |
